# Laboratory results taken from PubChem BioAssay (NCI).
#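 Method: 48-hour compound exposure of cells in 96-well plates, five concentrations, linear interpolation of endpoints. TGI is the concentration that stops growth completely.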
# Experiments:
# Assay in all cases: NCI tumour cell line growth inhibition, 48 h
# DMS 273 small cell lung = system: DMS 273 small cell lung
# DLD-1 colon = system: DLD-1 colon
# LXFL 529 NSCLC = system: LXFL 529 NSCLC
# HOP-18 NSCLC = system: HOP-18 NSCLC
# DMS 114 small cell lung = system: DMS 114 small cell lung
# M19-MEL melanoma = system: M19-MEL melanoma
# SNB-78 CNS = system: SNB-78 CNS
# XF 498 CNS = system: XF 498 CNS
# RXF-631 renal = system: RXF-631 renal
Compound,TGI (DMS 273 small cell lung),TGI (DLD-1 colon),TGI (LXFL 529 NSCLC),TGI (HOP-18 NSCLC),TGI (DMS 114 small cell lung),TGI (M19-MEL melanoma),TGI (SNB-78 CNS),TGI (XF 498 CNS),TGI (RXF-631 renal)
COc1ccc(C2S/C(=C\c3ccccc3O)C(=O)N2NC(=O)Cc2ccccc2)cc1 (stereo unspecified),> 100 µM,> 100 µM,> 100 µM,> 100 µM,> 100 µM,> 100 µM,–,–,–
CNC(=S)N(C)C(=S)Nn1c(=O)c(C)nn(C)c1=S,> 100 µM,> 100 µM,> 100 µM,> 100 µM,> 100 µM,> 100 µM,> 100 µM,–,–
CS(=O)(=O)N/N=C/CN1C(=O)c2ccccc2C1=O,> 100 µM,> 100 µM,> 100 µM,> 100 µM,> 100 µM,> 100 µM,> 100 µM,> 100 µM,–
COC(=O)C(C(=O)C(=O)Nc1cccc(OC)c1)c1cnc2ccccc2n1 (stereo unspecified),> 100 µM,> 100 µM,> 100 µM,> 100 µM,> 100 µM,–,> 100 µM,> 100 µM,> 100 µM
CC(=O)Nc1ccc(C(=O)NN2C(=O)C(Cl)C2c2ccccc2)cc1 (stereo unspecified),> 100 µM,> 100 µM,> 100 µM,–,–,> 100 µM,> 100 µM,–,–
O=[N+]([O-])c1nccn1CC(O)c1ccc(F)cc1 (stereo unspecified),> 100 µM,–,> 100 µM,> 100 µM,> 100 µM,> 100 µM,–,> 100 µM,> 100 µM
O=C(c1ccc(O)cc1)C1c2c3c(cc(O)c2C(c2ccc(O)cc2)C1c1cc(O)cc(O)c1)OC(c1ccc(O)cc1)C3c1cc2c(cc1O)OC(c1ccc(O)cc1)C2c1cc(O)cc(O)c1 (stereo unspecified),> 12.5 µM,> 12.5 µM,> 12.5 µM,–,> 12.5 µM,> 12.5 µM,–,–,–
